In brackets after ≈: the same amount, converted by molar mass.
Experiments:
[1] = tested on: M. tuberculosis H37Rv expressing the green fluorescent protein (H37Rv-GFP); assay: microbe, parasite or virus in culture; assay type: cell-based; details: for MIC50: Mycobacterium tuberculosis, H37RV, 120 h, read-out: QUM (MIC50)
[2] = tested on: Raw 264.7 cells infected with H37Rv-GFP; assay: microbe, parasite or virus in culture; assay type: cell-based, M. tuberculosis; details: for MIC50: Mycobacterium tuberculosis, H37RV, 120 h, read-out: QIM (MIC50)

SMILES | MIC50 [1] [µM] | MIC50 [2] [µM] | melting point [°C] | QUM (MIC50, uM) [1] | QIM (MIC50, uM) [2]
O=C(Nc1ccc(OCc2ccccc2)cc1)c1cc2nc(N3CCCCC3)sc2s1 [Compound 11] | > 20 | > 20 | 223 | – | –
O=C(Nc1ccc(OC(F)(F)F)cc1)c1cc2nc(N3CCCCC3)sc2s1 [Compound 14] | 1 to 20 (≈ 0.427 to 8.55 µg/mL) | < 1 | 238 | – | –
O=C(Nc1ccc(F)nc1)c1cc2sc(N3CCC(CO)CC3)nc2s1 [Compound 143] | < 1 | < 1 | 240.8 | – | –
Cc1nc2cc(NC(=O)c3cc4sc(N5CC(C)OC(C)C5)nc4s3)ccc2o1 (stereo not drawn) [Compound 180] | 1 to 20 (≈ 0.429 to 8.57 µg/mL) | < 1 | 274 | – | –
O=C(Nc1ccc(N2CCC(Cc3ccc(F)cc3)CC2)cc1)c1cc2sc(N3CCOCC3)nc2s1 [Compound 183] | > 20 | < 1 | 246 | – | –
Cn1cnc2ccc(NC(=O)c3cc4sc(N5CCOCC5)nc4s3)cc21 [Compound 117] | > 20 | > 20 | 314 | – | –
O=C(Nc1ccc(-c2n[nH]cc2F)cc1)c1cc2sc(N3CCOCC3)nc2s1.O=C(O)C(F)(F)F [Compound 159] | 1 to 20 | < 1 | 287.2 | – | –
CC(CNC(=O)c1ccc2nc(N3CCCCC3)sc2c1)c1ccccc1 (stereo not drawn) [Compound 1] | > 20 | > 20 | 196 | – | –
Cc1nc2cc(NC(=O)c3cc4sc(N5CCCC(C(=O)N(C)C)C5)nc4s3)ccc2o1 (stereo not drawn) [Compound 178] | 1 to 20 (≈ 0.47 to 9.39 µg/mL) | 1 to 20 (≈ 0.47 to 9.39 µg/mL) | 133.6 | – | –
COc1ccc(NC(=O)c2ccc3sc(N4CCCCC4)nc3c2)cc1 [Compound 70] | > 20 | > 20 | 222 | – | –
O=C(Nc1ccn(-c2ccccc2)n1)c1cc2sc(N3CCOCC3)nc2s1 [Compound 165] | > 20 | 1 to 20 (≈ 0.412 to 8.23 µg/mL) | 257.8 | – | –
O=C1Cc2cc(NC(=O)c3cc4nc(N5CCCCC5)sc4s3)ccc2N1 [Compound 23] | > 20 | > 20 | 260 | – | –
O=C(Nc1ccc(F)cc1)c1cc2sc(N3CCOCC3)nc2s1 [Compound 99] | 1 to 20 (≈ 0.363 to 7.27 µg/mL) | < 1 | 240 | – | –
COc1ccc(NC(=O)c2cc3sc(N4CCC(C(=O)N(C)C)CC4)nc3s2)cc1 [Compound 127] | < 1 | < 1 | 273.4 | – | –
Cc1nc2cc(NC(=O)c3cc4sc(N5CCNCC5)nc4s3)ccc2o1 [Compound 140] | 1 to 20 (≈ 0.4 to 7.99 µg/mL) | 1 to 20 (≈ 0.4 to 7.99 µg/mL) | 235.3 | – | –
COc1ccc(NC(=O)c2cc3ncsc3s2)cc1 [Compound 21] | > 20 | > 20 | 236 | – | –
O=C(c1cc2nc(N3CCCCC3)sc2s1)N1CCOCC1 [Compound 26] | > 20 | > 20 | 188 | – | –
Cc1nc2ccc(NC(=O)c3cc4nc(N5CCCCC5)sc4s3)cc2o1 [Compound 34] | > 20 | – | 213 | – | –
COC(=O)C1CCC(NC(=O)c2cc3nc(N4CCCCC4)sc3s2)CC1 (stereo not drawn) [Compound 30] | > 20 | – | 191 | – | –
COC(=O)c1ccc(N(C)C(=O)c2cc3nc(N4CCCCC4)sc3s2)cc1 [Compound 31] | > 20 | – | 178.5 | – | –
Cc1nc2cc(NC(=O)c3cc4sc(N5CCC(Cc6ccc(Cl)cc6)CC5)nc4s3)ccc2o1 [Compound 236] | > 20 | < 1 | – | – | –

SMILES | MIC50 [1] [µM] | MIC50 [2] [µM] | melting point [°C] | QUM (MIC50, uM) [1] | QIM (MIC50, uM) [2]
O=C(Nc1ccc(F)cn1)c1cc2sc(NCCN3CCOCC3)nc2s1 [Compound 335] | 1 to 20 (≈ 0.407 to 8.15 µg/mL) | 1 to 20 (≈ 0.407 to 8.15 µg/mL) | – | – | –
CN(C)C(=O)C1CCN(c2nc3sc(C(=O)Nc4ccc(-c5ccn(C)n5)cc4)cc3s2)CC1 [Compound 203] | < 1 | < 1 | – | – | –
O=C(Nc1ccc(-c2ccc(F)nc2)cc1)c1cc2sc(NCCN3CCOCC3)nc2s1 [Compound 288] | < 1 | < 1 | – | – | –
Cc1nc2cc(NC(=O)c3cc4sc(N5CC(C(=O)N(C)C)C5)nc4s3)ccc2o1 [Compound 244] | > 20 | < 1 | – | – | –
CN(C)C(=O)[C@H]1CCN(c2nc3sc(C(=O)Nc4ccc(-c5ccc(F)nc5)cc4)cc3s2)C1 [Compound 298] | < 1 | < 1 | – | – | –
O=C(Nc1ccc(N2CCC(O)(Cc3ccccc3)CC2)cc1)c1cc2sc(NCCN3CCOCC3)nc2s1 [Compound 294] | > 20 | < 1 | – | – | –
Cc1nc2cc(NC(=O)c3cc4sc(N5CCC(C(=O)c6ccc(Cl)cc6)CC5)nc4s3)ccc2o1 [Compound 205] | > 20 | > 20 | – | – | –
Cc1nc2cc(NC(=O)c3cc4sc(N(CCO)C5CCCCC5)nc4s3)ccc2o1 [Compound 227] | 1 to 20 (≈ 0.457 to 9.13 µg/mL) | > 20 | – | – | –
CN(CC(O)C(F)(F)F)c1nc2sc(C(=O)Nc3ccc(-c4ccc(F)nc4)cc3)cc2s1 (stereo not drawn) [Compound 339] | < 1 | < 1 | – | – | –
CN(CCO)c1nc2sc(C(=O)Nc3ccc(-c4ccc(F)nc4)cc3)cc2s1 [Compound 272] | < 1 | < 1 | – | – | –
CN(C)C(=O)C1CCN(c2nc3sc(C(=O)Nc4ccc(-c5ccc(F)cc5)cn4)cc3s2)CC1 [Compound 246] | 1 to 20 (≈ 0.51 to 10.2 µg/mL) | < 1 | – | – | –
Cc1ccc(-c2ccc(NC(=O)c3cc4sc(N5CCC(C(=O)N(C)C)CC5)nc4s3)cc2)nc1.Cl [Compound 258] | – | – | – | ++ (++ indicates between 1-20 uM) | +++ (+++ indicates <1 uM)
O=C(O)c1ccc(NC(=O)c2cc3sc(N4CCCCC4)nc3s2)cc1 [Compound 51] | 1 to 20 (≈ 0.387 to 7.75 µg/mL) | 1 to 20 (≈ 0.387 to 7.75 µg/mL) | – | – | –
O=C(Nc1ccc(-c2ccc(F)cn2)cc1)c1cc2sc(NCC(O)C(F)(F)F)nc2s1 (stereo not drawn) [Compound 340] | 1 to 20 (≈ 0.482 to 9.65 µg/mL) | < 1 | – | – | –
CN(C)C(=O)CC1CCN(c2nc3sc(C(=O)Nc4ccc(-c5ccc(F)nc5)cc4)cc3s2)C1 (stereo not drawn) [Compound 350] | < 1 | < 1 | – | – | –
COCCN(C)c1nc2sc(C(=O)Nc3ccc(-c4ccc(F)cc4)cn3)cc2s1 [Compound 273] | 1 to 20 (≈ 0.443 to 8.85 µg/mL) | < 1 | – | – | –
CN(C)C(=O)C1CCN(c2nc3sc(C(=O)Nc4ccc5oc(Cc6ccc(F)cc6)nc5c4)cc3s2)CC1 [Compound 219] | 1 to 20 (≈ 0.564 to 11.3 µg/mL) | < 1 | – | – | –
CN(C)C(=O)C1CCN(c2nc3sc(C(=O)Nc4ccc5oc(-c6ccc(Cl)cc6)nc5c4)cc3s2)CC1 [Compound 214] | > 20 | < 1 | – | – | –
Cc1nc2cc(NC(=O)c3cc4sc(NCCN5CCN(C)CC5)nc4s3)ccc2o1 [Compound 326] | > 20 | > 20 | – | – | –
O=C(Nc1ccc(-c2ccc(F)nc2)cc1)c1cc2sc(N3CCNCC3)nc2s1 [Compound 289] | 1 to 20 (≈ 0.44 to 8.79 µg/mL) | < 1 | – | – | –
CN(CCO)c1nc2sc(C(=O)Nc3ccc(-c4ccn(C)n4)cc3)cc2s1 [Compound 275] | 1 to 20 (≈ 0.414 to 8.27 µg/mL) | < 1 | – | – | –

SMILES | MIC50 [1] [µM] | MIC50 [2] [µM] | melting point [°C] | QUM (MIC50, uM) [1] | QIM (MIC50, uM) [2]
O=C(Nc1ccc(N2CCC(C(=O)c3ccc(Cl)cc3)CC2)cc1)c1cc2sc(N3CCOCC3)nc2s1 [Compound 226] | > 20 | < 1 | – | – | –
O=C(Nc1ccc(-c2ccc(F)nc2)cc1)c1cc2sc(NCCOc3ccc(Cl)cc3)nc2s1 [Compound 301] | > 20 | < 1 | – | – | –
CN(CCO)c1nc2sc(C(=O)Nc3ccc(N4CCC(Oc5ccc(F)cc5)CC4)cc3)cc2s1 [Compound 250] | > 20 | < 1 | – | – | –
Cc1nc2cc(NC(=O)c3cc4sc(NCCOc5ccc(Cl)cc5)nc4s3)ccc2o1 [Compound 290] | > 20 | < 1 | – | – | –
O=C(Nc1ccc(F)cn1)c1cc2sc(N3CCOCC3)nc2s1 [Compound 105] | 1 to 20 (≈ 0.364 to 7.29 µg/mL) | < 1 | – | – | –
COc1ccc(NC(=O)c2cc3nc(N4CCOCC4)sc3s2)cc1 [Compound 27] | > 20 | 1 to 20 (≈ 0.375 to 7.51 µg/mL) | – | – | –
COc1ccc(CN(CCO)c2nc3sc(C(=O)Nc4ccc5oc(C)nc5c4)cc3s2)cc1 [Compound 248] | 1 to 20 (≈ 0.495 to 9.89 µg/mL) | < 1 | – | – | –
Cc1nc2cc(NC(=O)c3cc4ccc(N5CCOCC5)nc4s3)ccc2o1 [Compound 176] | > 20 | > 20 | – | – | –
O=C(Nc1ccc(-c2ccc(F)cn2)cc1)c1cc2sc(NCCCN3CCOCC3)nc2s1 [Compound 328] | < 1 | < 1 | – | – | –
Cc1nc2cc(NC(=O)c3cc4sc(N5CC[C@@H](C(=O)N(C)C)C5)nc4s3)ccc2o1 [Compound 223] | 1 to 20 (≈ 0.456 to 9.11 µg/mL) | 1 to 20 (≈ 0.456 to 9.11 µg/mL) | – | – | –
O=C(Nc1ccc(C(F)(F)F)cc1)c1cc2nc(N3CCCCC3)sc2s1 [Compound 33] | > 20 | – | 228.6 | – | –
COc1ccc(NC(=O)c2cc3sc(N4CCC(O)CC4)nc3s2)cc1 [Compound 76] | < 1 | < 1 | – | – | –
CC(C)(C)CC(=O)NC1CCN(c2nc3sc(C(=O)Nc4ccc(F)cc4)cc3s2)CC1 [Compound 304] | > 20 | < 1 | – | – | –
Cc1nc2cc(NC(=O)c3cc4sc(N5CCC(NC(=O)CC(C)(C)C)CC5)nc4s3)ccc2o1 [Compound 305] | > 20 | < 1 | – | – | –
Cc1nc2cc(NC(=O)c3cc4sc(N5CCN(CCO)CC5)nc4s3)ccc2o1 [Compound 336] | 1 to 20 (≈ 0.444 to 8.87 µg/mL) | < 1 | – | – | –
O=C(Nc1ccc(F)cc1)c1cc2sc(NCCN3CCOCC3)nc2s1 [Compound 302] | 1 to 20 (≈ 0.407 to 8.13 µg/mL) | < 1 | – | – | –
Cc1ccc(-c2ccc(NC(=O)c3cc4sc(N5CCC(C(=O)N(C)C)CC5)nc4s3)cc2)nc1 [Compound 217] | 1 to 20 (≈ 0.506 to 10.1 µg/mL) | < 1 | – | – | –
Cc1nc2cc(NC(=O)c3cc4sc(NCCO)nc4s3)ccc2o1 [Compound 267] | 1 to 20 (≈ 0.374 to 7.49 µg/mL) | 1 to 20 (≈ 0.374 to 7.49 µg/mL) | – | – | –
COCCN(C)c1nc2sc(C(=O)Nc3ccc4oc(C)nc4c3)cc2s1 [Compound 202] | < 1 | < 1 | – | – | –
CN1CCCC(Nc2nc3sc(C(=O)Nc4ccc(F)cc4)cc3s2)C1 (stereo not drawn) [Compound 311] | > 20 | 1 to 20 (≈ 0.391 to 7.81 µg/mL) | – | – | –

From patent publication US11279714B2, “Anti-infective compounds” (priority 2014, dated 2022)
